Among the data in publication PMC8976068, “Structural basis to repurpose boron-based proteasome inhibitors Bortezomib and Ixazomib as β-lactamase inhibitors” (Scientific Reports, 2022) are IC50 values, retold here.

Each structure is given as a SMILES string. Like-named read-outs stand apart in the source and are kept apart here.

Usually IC50 stands for the point on the concentration scale where inhibition reaches its midpoint.

Assay [1] concerns the target T1, CTX-M-14 β-lactamase (Klebsiella pneumoniae, UniProt A0A2S1JJX2). Put plainly: crystal structure ([…] Å, soaking); also purified enzyme inhibition assay, cefotaxime hydrolysis. The class given is biochemical.
Assay [2] has as its target T1, CTX-M-14 β-lactamase. The assay is described as above. It counts as biochemical. The source holds these as a separate data set.

T1 sequence (A0A2S1JJX2 entry or part of it): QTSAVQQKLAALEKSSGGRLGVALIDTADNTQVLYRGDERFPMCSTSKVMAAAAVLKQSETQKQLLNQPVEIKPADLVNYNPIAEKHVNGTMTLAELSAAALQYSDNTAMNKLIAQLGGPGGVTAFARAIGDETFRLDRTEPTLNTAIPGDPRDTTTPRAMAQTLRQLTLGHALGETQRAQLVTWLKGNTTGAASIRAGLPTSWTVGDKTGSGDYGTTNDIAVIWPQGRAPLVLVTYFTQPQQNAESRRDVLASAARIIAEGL

On to `CC(C)C[C@H](NC(=O)[C@H](Cc1ccccc1)NC(=O)c1cnccn1)B(O)O` [Bortezomib], for which the IC50 in assay [1] stood at 67 ± 1.4 µM.

With `CC(C)C[C@H](NC(=O)CNC(=O)c1cc(Cl)ccc1Cl)B(O)O` [Ixazomib], inhibition in assay [2] was half-maximal at 13 ± 1.2 µM (IC50).
